This passage reports inhibition results from patent US20160243011A1, “Formulations Comprising Idebenone, N-Acetyl-S-Farnesyl-L-Cysteine and Ergothioneine and Uses Thereof” (ELIZABETH ARDEN, INC., priority 2012, published 2016).

One test concerns IL-6. Description: UVB induced IL-6 release in NHEKs (ELISA). It is filed as cell-based. The conditions noted are these: Homo sapiens, light or radiation study; Compound (0.1 μM); NHEK, UVB 25 mJ/cm^2, medium assayed 24 h later; read-out: IL-6 (% inhibited). Background: An ELISA detects its analyte on a solid surface through an enzyme-linked reagent.
In another test the test system is TNFα. Description: UVB induced TNFα release in NHEKs (ELISA). In kind it is cell-based. The conditions noted are these: Homo sapiens, light or radiation study; Compound (0.1 μM); NHEK, UVB 25 mJ/cm^2, medium assayed 24 h later; read-out: TNFα (% inhibited).

Turning to `CC(=O)N[C@@H](CSC/C=C(\C)CC/C=C(\C)CCC=C(C)C)C(=O)O` [Arazine ™, N-acetyl-S-farnesyl-L-cysteine], the values for the inhibition at 0.1 µM in the test with IL-6 and in the test on TNFα were 28% and 33%, respectively.
With `C[N+](C)(C)C(Cc1c[nH]c(=S)[nH]1)C(=O)O` (stereo not drawn) [Ergothioneine, 3-(2-sulfanylidene-1,3-dihydroimidazol-4-yl)-2-(trimethylazaniumyl)propanoate], the values for the inhibition at 0.1 µM with IL-6 and in the test with TNFα were 12% and 35%, respectively.
For `COC1=C(OC)C(=O)C(CCCCCCCCCCO)=C(C)C1=O` [Idebenone], the inhibition at 0.1 µM with IL-6 turned out to be 15%; in the test with TNFα, 47%.
